Reference: US10981932B2, “Macrocyclic indole derivatives” (Bayer Aktiengesellschaft, priority 2016, dated 2021)
Read-outs that look alike come from different tables or passages of the source.

Legend:
SUDHL10 [1] = assay: Induction of cytotoxicity (CellTiter-Glo, 5 h), SUDHL10
SUDHL5 [2] = assay: Anti-proliferative effect (CellTiter-Glo, 72 h), SUDHL5; assay type: cell-based; settings: SUDHL5 cells, antiproliferation, median, read-out: Antiproli SUDHL5 [M] (median)
In short: (§1)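 Luminescence from CellTiter-Glo, read 10 min after reagent addition, reports viable cell content after 72 h of compound treatment at 37 °C. A reference plate read at day 0 gives the starting baseline.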

MV-4-11 = assay: Anti-proliferative effect (CellTiter-Glo, 72 h), MV-4-11; assay type: cell-based; settings: MV-4-11 cells, median, read-out: IC50 antiproliferation assay MV-4-11 [M] (median)
Description: Assessment of the Anti-Proliferative Effect of Compounds in Different Cell Lines
The impact of compounds on the proliferation of different cell lines was assessed using the CellTiter-Glo® Luminescent Cell Viability reagent from Promega (G7573). Of note, SUDHL10 and SUDHL5 (DLBCL), NCI-H929 (Multiple Myeloma), A2780 (ovarian carcinoma) as well as MV-4-11(AML) cells are sensitive to MCL-1 inhibition.
In parallel, cells were plated in a reference (day 0) plate for time zero determination.
Rim wells were excluded. The cells were incubated for 72 h hours in a humidified incubator at 37° C. The day 0 plate was measured by adding 30 μl/well of CTG solution (CellTiter-Glo® Luminescent Cell Viability reagent, Promega G7573) to time zero wells in the reference plate followed by a 10 minutes incubation and luminescence reading at 0.1 ms, using the PHERAstar FS microplate reader (BMG Labtech).
After 72 h incubation, the treated plates were measured in the same way as the day 0 plate mentioned above.

SUDHL5 [3] = assay: Induction of cytotoxicity (CellTiter-Glo, 5 h), SUDHL5
A2780 = assay: Anti-proliferative effect (CellTiter-Glo, 72 h), A2780; assay type: cell-based; settings: A2780 cells, median, read-out: IC50 antiproliferation assay A2780 [M] (median)
In short: as §1

SUDHL5 [4] = assay: Induction of caspase-3/7 activity (Caspase-Glo 3/7), SUDHL5; assay type: cell-based; settings: caspase-3/7 induction, SUDHL5 cells, 3 h treatment, median
In short: (§2)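 Apoptosis induction measured as caspase-3/7 activity (Caspase-Glo 3/7) in DLBCL lines after 3 h treatment at 37 °C; EC50 derived relative to the reference compound's maximal induction, with C0 fixed at 1.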

MCL-1 = MCL-1 (Homo sapiens, UniProt Q07820); assay: Protein-protein interaction assay MCL-1/Noxa BH3 peptide (MCL-1 assay), TR-FRET; assay type: binding; settings: MBP-MCL-1 / Noxa BH3-derived peptide, median
MCL-1, sequence (Q07820 whole entry): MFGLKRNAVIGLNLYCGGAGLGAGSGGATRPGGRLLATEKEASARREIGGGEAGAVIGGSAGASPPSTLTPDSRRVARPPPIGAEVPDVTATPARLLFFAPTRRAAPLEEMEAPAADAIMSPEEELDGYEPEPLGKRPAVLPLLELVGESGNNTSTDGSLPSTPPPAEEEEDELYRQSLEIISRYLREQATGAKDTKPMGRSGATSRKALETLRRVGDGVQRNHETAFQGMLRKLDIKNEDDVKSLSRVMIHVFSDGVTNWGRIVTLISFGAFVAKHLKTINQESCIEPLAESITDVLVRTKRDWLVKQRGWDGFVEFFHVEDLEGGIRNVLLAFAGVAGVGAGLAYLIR
In short: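 Inhibition values were normalized between DMSO controls with all reagents and controls lacking MCL-1. The binding competition used 1 nM MBP-MCL-1 in pH 7 Tris buffer containing 50 mM KF and 100 mM NaCl, with a 10 min compound preincubation at 22 °C.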

SUDHL10 [5] = assay: Induction of caspase-3/7 activity (Caspase-Glo 3/7), SUDHL10; assay type: cell-based; settings: caspase-3/7 induction, SUDHL10 cells, 3 h treatment, median
In short: as §2

[6] = Homo sapiens, SU-DHL10, 5 h, read-out: Cytotox SUDHL10 [M] (median), SUDHL10 cells, cytotoxicity induction, CellTiter-Glo, 5 h incubation, median
[7] = Homo sapiens, SU-DHL-5, 72 h, 72 h incubation
[8] = Homo sapiens, SU-DHL-5, 5 h, read-out: Cytotox SUDHL5 [M] (median), SUDHL5 cells, cytotoxicity induction, CellTiter-Glo, 5 h incubation, median
[9] = read-out: Cytotox SUDHL10 [M] (median), SUDHL10 cells, cytotoxicity induction, CellTiter-Glo, 5 h incubation, median
[10] = Homo sapiens, SU-DHL10, 5 h, read-out: Cytotox SUDHL10 [M] (median), SUDHL10 cells, cytotoxicity induction, CellTiter-Glo, 5 h, median
[11] = Homo sapiens, SU-DHL-5, 72 h, 72 h
[12] = Homo sapiens, SU-DHL-5, 5 h, read-out: Cytotox SUDHL5 [M] (median), SUDHL5 cells, cytotoxicity induction, CellTiter-Glo, 5 h, median
[13] = read-out: Cytotox SUDHL5 [M] (median), SUDHL5 cells, cytotoxicity induction, CellTiter-Glo, 5 h incubation, median
[14] = read-out: Cytotox SUDHL10 [M] (median), SUDHL10 cells, cytotoxicity induction, CellTiter-Glo, 5 h, median
[15] = read-out: Cytotox SUDHL5 [M] (median), SUDHL5 cells, cytotoxicity induction, CellTiter-Glo, 5 h, median

Row | IC50 (SUDHL5 [2]; [7]) [M] | IC50 (MV-4-11; Homo sapiens, MV4-11, 72 h) [M] | IC50 (A2780; Homo sapiens, A2780, 72 h) [M] | EC50 (SUDHL5 [4]; Homo sapiens, SU-DHL-5, 3 h) [µM] | IC50 (MCL-1) [µM] | EC50 (SUDHL10 [5]; Homo sapiens, SU-DHL10, 3 h) [µM] | EC50 (SUDHL10 [5]) [µM] | IC50 (SUDHL5 [2]; [11]) [M] | IC50 (A2780) [M] | IC50 (SUDHL5 [2]; 72 h incubation) [M] | EC50 (SUDHL5 [4]) [µM] | IC50 (MV-4-11) [M] | SMILES | IC50 (SUDHL10 [1]; [6]) [M] | IC50 (SUDHL5 [3]; [8]) [M] | IC50 (SUDHL10 [1]; [9]) [M] | IC50 (SUDHL10 [1]; [10]) [M] | IC50 (SUDHL5 [3]; [12]) [M] | IC50 (SUDHL5 [3]; [13]) [M] | IC50 (SUDHL10 [1]; [14]) [M] | IC50 (SUDHL5 [3]; [15]) [M]
1 |  | 9.57e-06 | > 3.3e-05 | 3.38 | 0.0028 | 13.6 |  | 5.06e-06 | 2.62e-05 |  |  |  | CCc1c2c(nn1C)COCCCCn1c(C(=O)O)c(CCCOc3cccc4c3CCCC4)c3cccc-2c31 (racemic) [Example 290, (rac)-12-ethyl-11-methyl-1-(3-((5,6,7,8-tetrahydronaphthalen-1-yl)oxy)propyl)-4,5,6,7,9,11-hexahydropyrazolo[4′,3′:9,10][1]oxa[6]azacycloundecino[8,7,6-hi]indole-2-carboxylic Acid] |  |  |  | 1.19e-05 | 3.61e-06 |  |  | 
2 |  | 1.82e-05 | > 3.3e-05 | 8.51 | 0.00238 | 32 | > 33 | 8.71e-06 |  |  |  |  | CCc1nn(C)c2c1-c1cccc3c(CCCOc4cccc5c4CCCC5)c(C(=O)O)n(c13)CCCCOC2 (racemic) [Example 291, (rac)-12-ethyl-10-methyl-1-(3-((5,6,7,8-tetrahydronaphthalen-1-yl)oxy)propyl)-4,5,6,7,9,10-hexahydropyrazolo[4′,3′:9,10][1]oxa[6]azacycloundecino[8,7,6-hi]indole-2-carboxylic Acid] |  |  |  | > 3.3e-05 | 8.6e-06 |  |  | 
3 |  | 8.52e-06 | 1.58e-05 | 0.671 | 0.00184 | 1.21 |  | 1.59e-06 |  |  |  |  | Cc1ccc2c(CCCOc3cccc4cc(F)ccc34)c(C(=O)O)n3c2c1-c1c(nn(CCN2CCOCC2)c1C)COCCCC3 (racemic) [Example 292, (rac)-7-{3-[(6-fluoronaphthalen-1-yi)oxy]propyl}-3,4-dimethyl-2-[2-(morpholin-4-yl)ethyl]-2,10,11,12,13,15-hexahydropyrazolo[4′,3′:9,10][1,6]oxazacycloundecino[8,7,6-hi]indole-8-carboxylic Acid] |  |  |  | 1.52e-06 | 1.13e-06 |  |  | 
4 |  | 2.75e-06 |  |  | 0.00585 |  | 10.1 |  |  | 2.58e-06 | 2.71 |  | CCc1nn(C)c2c1-c1c(C)ccc3c(C(C)CCOc4cccc5cc(F)ccc45)c(C(=O)O)n(c13)CCCCOC2 (single isomer, unassigned) [Example 265, 3-ethyl-7-{4-[(6-fluoronaphthalen-1-yl)oxy]butan-2-yl}-1,4-dimethyl-1,10,11,12,13,15-hexahydropyrazolo[4′,3′:9,10][1,6]oxazacycloundecino[8,7,6-hi]indole-8-carboxylic Acid] |  |  | 7.35e-06 |  |  | 2.09e-06 |  | 
5 |  |  |  |  | 0.133 |  | > 33 |  | > 3.3e-05 |  | > 33 | > 3.3e-05 | Cc1ccc2c(OCCCc3c(C(=O)O)n4c5c(cccc35)-c3c(nn(C)c3C)COCCCC4)cccc2c1 (single isomer, unassigned; enantiomer 2) [Example 309, 2,3-dimethyl-7-{3-[(6-methylnaphthalen-1-yl)oxy]propyl}-2,10,11,12,13,15-hexahydropyrazolo[4′3′:9,10][1,6]oxazacycloundecino[8,7,6-hi]indole-8-carboxylic Acid (Enantiomer 2)] |  |  |  |  |  |  | > 3.3e-05 | > 3.3e-05
6 |  |  |  |  | 0.919 |  | 20.1 |  | 8.63e-06 |  | > 33 | 1.16e-05 | CCc1nn(C)c2c1-c1cccc3c(CCCOc4cccc5cc(C(F)(F)F)ccc45)c(C(=O)O)n(c13)CCCCOC2 (single isomer, unassigned; enantiomer 2) [Example 315, 3-ethyl-1-methyl-7-(3-{[6-(trifluoromethyl)naphthalen-1-yl]oxy}propyl)-1,10,11,12,13,15-hexahydropyrazolo[4′,3′:9,10][1,6]oxazacycloundecino[8,7,6-hi]indole-8-carboxylic Acid (Enantiomer 2)] |  |  |  |  |  |  | 1.58e-05 | 1.48e-05

Continued, compound first:

Row | SMILES | IC50 (SUDHL5 [2]; [7]) [M] | IC50 (MV-4-11; Homo sapiens, MV4-11, 72 h) [M] | IC50 (A2780; Homo sapiens, A2780, 72 h) [M] | EC50 (SUDHL5 [4]; Homo sapiens, SU-DHL-5, 3 h) [µM] | IC50 (MCL-1) [µM] | EC50 (SUDHL10 [5]; Homo sapiens, SU-DHL10, 3 h) [µM] | EC50 (SUDHL10 [5]) [µM] | IC50 (SUDHL5 [2]; [11]) [M] | IC50 (A2780) [M] | IC50 (SUDHL5 [2]; 72 h incubation) [M] | EC50 (SUDHL5 [4]) [µM] | IC50 (MV-4-11) [M] | IC50 (SUDHL10 [1]; [6]) [M] | IC50 (SUDHL5 [3]; [8]) [M] | IC50 (SUDHL10 [1]; [9]) [M] | IC50 (SUDHL10 [1]; [10]) [M] | IC50 (SUDHL5 [3]; [12]) [M] | IC50 (SUDHL5 [3]; [13]) [M] | IC50 (SUDHL10 [1]; [14]) [M] | IC50 (SUDHL5 [3]; [15]) [M]
7 | CN1CCCCn2c(C(=O)O)c(CCCOc3cccc4ccccc34)c3cccc(c32)-c2c(CC(F)(F)F)nn(C)c2C1 (racemic) [Example 222, (rac)-1,14-dimethyl-7-[3-(naphthalen-1-yloxy)propyl]-3-(2,2,2-trifluoroethyl)-10,11,12,13,14,15-hexahydro-1H-pyrazolo[3′,4′:8,9][1,6]diazacycloundecino[10,11,1-hi]indole-8-carboxylic Acid] | 9.85e-06 | 7.87e-06 | 2.46e-05 | 14.4 | 0.00597 | 18.2 |  |  |  |  |  |  | 2.01e-05 | 1.15e-05 |  |  |  |  |  | 
8 | CN1CCCCn2c(C(=O)O)c(CCCOc3cccc4ccccc34)c3cccc(c32)-c2c(/C=C/F)nn(C)c2C1 (racemic) [Example 225, (rac)-3-[(E)-2-fluoroethenyl]-1,14-dimethyl-7-[3-(naphthalen-1-yloxy)propyl]-10,11,12,13,14,15-hexahydro-1H-pyrazolo[3′,4′:8,9][1,6]diazacycloundecino[10,11,1-hi]indole-8-carboxylic Acid] | 7.21e-06 | 1.85e-05 | 2.33e-05 | 16.5 | 0.0032 | 19.6 | > 33 |  |  |  |  |  | 3.27e-05 | 1.32e-05 | > 3.3e-05 |  |  |  |  | 
9 | CN1CCCn2c(C(=O)O)c(CCCOc3cccc4ccccc34)c3cccc(c32)-c2c(nn(C)c2COc2ccc(N3CCN(S(=O)(=O)N(C)C)CC3)cc2)C1 (single isomer, unassigned; enantiomer 1) [Example 1-112, 11-({4-[4-(Dimethylsulfamoyl)piperazin-1-yl)phenoxy]methyl}-7,10-dimethyl-1-[3-(1-naphthyloxy)propyl]-4,5,6,7,8,10-hexahydropyrazolo[3′,4′:7,8][1,5]diazecino[9,10,1-hi]indole-2-carboxylic Acid (Enantiomer 1)] |  |  |  |  | 0.012 |  | 3.34 |  |  | 2.72e-06 | 2.32 | 2.69e-06 |  |  | 5.46e-06 |  |  | 3.3e-06 |  | 
10 | CN1CCCn2c(C(=O)O)c(CCCOc3cccc4ccccc34)c3cccc(c32)-c2c(nn(C)c2COc2ccc(N3CCN(S(=O)(=O)N(C)C)CC3)cc2)C1 (single isomer, unassigned; enantiomer 2) [Example 1-113, 11-({4-[4-(Dimethylsulfamoyl)piperazin-1-yl]phenoxy}methyl)-7,10-dimethyl-1-[3-(1-naphthyloxy)propyl]-4,5,6,7,8,10-hexahydropyrazolo[3′,4′:7,8][1,5]diazecino[9,10,1-hi]indole-2-carboxylic Acid (Enantiomer 2)] |  |  |  |  | 0.0277 |  | 9.08 |  |  | 1.05e-05 | 10.5 | 1.2e-05 |  |  | 2.06e-05 |  |  | 1.31e-05 |  | 
